The values below come from US20230406821A1, “STRIGOLACTONE DERIVATIVES” (Plant Response, Inc., priority 2017, published 2023).

Experiment [1] has as its system A. thaliana Columbia (Col-0) seedlings. The experiment in a line: Desiccation stress survival assay of seedlings. It is filed as in vivo, Arabidopsis thaliana. The settings on record: 50 μM in media, 0.4% DMSO, three days, 4 hours desiccation, seven days recovery (FIG. 5). The text has this: Post germination desiccation is an extreme form of dehydration which can be used as a survival assay for testing abiotic stress tolerance in plants. While desiccation stress is distinct from the gradual onset of drought typically experienced in an agricultural setting, the response in the plant has many commonalities across both cases (Fernando, V. C., & Schroeder, D. F. “Role of ABA in Arabidopsis Salt, Drought, and Desiccation Tolerance,” (2016), pp. 507-518), and increased tolerance in one case can often predict tolerance in the other.
In this experiment sterilized and stratified seeds of the A. thaliana Columbia (Col-0) were planted on growth media (Murashige and Skoog (MS) M404 with vitamins (2.2 g/L), 0.5% sucrose, 0.05% IVIES hydrate, 0.6% PhytoBlend™) and grown for nine days in a growth chamber with continuous light at 22° C. The seedlings were then transplanted to same media supplemented with the control solvent DMSO, strigolactone molecule MBS-127 in DMSO, or strigolactone molecule MBS-128 in DMSO. The final concentration of DMSO in the media was 0.4% and the concentration of MBS-127 and MBS-128 was 50 μM. After three days of growth on the treatment media the seedlings were photographed and then transplanted to dry filter paper and subjected to 4 hours of desiccation stress. […]

In experiment [2] the test system is Arabidopsis thaliana homozygous max4 knockout mutant. The experiment in a line: Complementation of ectopic shoot branching in max4 strigolactone biosynthesis mutant. It is filed as in vivo. As to conditions: max4 mutant line, 10 μM in 0.5× Hoagland's reservoir solution, 0.1% DMSO, 3 weeks of treatment, vs DMSO control (FIG. 1). The text has this:
FIG. 1 is a plot of the number of secondary bolts over 0.5 cm long of strigolactone biosynthesis mutant, homozygous max4 knockout, plants that have a primary bolt over 6 cm long treated with solution containing control solvent DMSO, strigolactone molecule MBS-127 in DMSO, and strigolactone molecule MBS-128 in DMSO. Stars indicate significant differences relative to the DMSO control based on the Welch's t-test (*: adjusted p-value <0.1; p-values adjusted for multiple-hypothesis testing
The ability of a novel compound to act in an equivalent manner to a native strigolactone can be assessed by testing its ability to complement phenotypes caused by mutations that disrupt the natural biosynthesis of strigolactones within the plant.
The metric used to assess branching was the number of secondary bolts over 0.5 cm in length in plants that have a primary bolt over 6 cm long. Assessments were made after treatments with solution containing control solvent DMSO, the strigolactone molecule MBS-127 in DMSO, and the strigolactone molecule MBS-128 in DMSO as detailed below. Stratified A. thaliana homozygous max4 knockout mutant seeds were planted on rockwool plugs suspended above reservoirs of 0.5× Hoagland's solution. The plants were grown under 16 hours of light per day at 22° C. and at 19° C. during the nights throughout the experiment. […]

Take `COC(=O)/C=C/OC1C=C(C)C(=O)O1` (stereo not shown) [MBS-127, 3-(4-Methyl-5-oxo-2,5-dihydro-furan-2-yloxy)-acrylic acid methyl ester]: in experiment [1], the “survival and vigor of seedlings exposed to severe desiccation stress” value is “increase the survival and vigor”. Moreover, in experiment [2], the “ectopic branching phenotype (number of secondary bolts over 0.5 cm on plants with primary bolt over 6 cm)” value is given as “effective in reducing the ectopic branching phenotype”.
Consider `COC(=O)/C=C/OC1(C)C=C(C)C(=O)O1` (stereo not shown) [MBS-128, methyl (E)-3-((2,4-dimethyl-5-oxo-2,5-dihydrofuran-2-yl)oxy)acrylate], for which the “survival and vigor of seedlings exposed to severe desiccation stress” value in experiment [1] is “increase the survival and vigor”. Moreover, in experiment [2], the “ectopic branching phenotype (number of secondary bolts over 0.5 cm on plants with primary bolt over 6 cm)” value is “effective in reducing the ectopic branching phenotype”.
